Results published in ChEMBL document CHEMBL1136711, “Synthesis and SAR of bicyclic heteroaryl hydroxamic acid MMP and TACE inhibitors” (Bioorg Med Chem Lett, 2003).

Key:
Interstitial collagenase = target: T1, Interstitial collagenase (Homo sapiens, UniProt P03956); assay: Inhibitory activity against matrix metalloprotease 1 (MMP-1).
T1 sequence (P03956 whole entry): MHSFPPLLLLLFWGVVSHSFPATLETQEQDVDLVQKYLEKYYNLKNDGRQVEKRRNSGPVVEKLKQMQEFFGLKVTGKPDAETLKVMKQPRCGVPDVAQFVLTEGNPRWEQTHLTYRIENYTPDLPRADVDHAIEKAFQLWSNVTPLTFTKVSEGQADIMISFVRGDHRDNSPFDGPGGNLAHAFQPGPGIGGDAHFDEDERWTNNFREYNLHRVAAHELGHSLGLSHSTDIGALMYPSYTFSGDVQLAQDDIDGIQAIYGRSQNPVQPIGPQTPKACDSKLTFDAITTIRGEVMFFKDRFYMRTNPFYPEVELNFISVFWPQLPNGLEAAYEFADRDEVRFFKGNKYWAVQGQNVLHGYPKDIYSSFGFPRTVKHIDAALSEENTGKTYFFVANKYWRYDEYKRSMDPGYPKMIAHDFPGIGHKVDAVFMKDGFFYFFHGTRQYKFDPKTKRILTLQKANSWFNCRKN

[1] = target: Disintegrin and metalloproteinase domain-containing protein 17 (Homo sapiens, UniProt P78536); assay: Inhibitory activity against TACE.
Chain of Disintegrin and metalloproteinase domain-containing protein 17 (P78536 whole entry, the tested form may be a part): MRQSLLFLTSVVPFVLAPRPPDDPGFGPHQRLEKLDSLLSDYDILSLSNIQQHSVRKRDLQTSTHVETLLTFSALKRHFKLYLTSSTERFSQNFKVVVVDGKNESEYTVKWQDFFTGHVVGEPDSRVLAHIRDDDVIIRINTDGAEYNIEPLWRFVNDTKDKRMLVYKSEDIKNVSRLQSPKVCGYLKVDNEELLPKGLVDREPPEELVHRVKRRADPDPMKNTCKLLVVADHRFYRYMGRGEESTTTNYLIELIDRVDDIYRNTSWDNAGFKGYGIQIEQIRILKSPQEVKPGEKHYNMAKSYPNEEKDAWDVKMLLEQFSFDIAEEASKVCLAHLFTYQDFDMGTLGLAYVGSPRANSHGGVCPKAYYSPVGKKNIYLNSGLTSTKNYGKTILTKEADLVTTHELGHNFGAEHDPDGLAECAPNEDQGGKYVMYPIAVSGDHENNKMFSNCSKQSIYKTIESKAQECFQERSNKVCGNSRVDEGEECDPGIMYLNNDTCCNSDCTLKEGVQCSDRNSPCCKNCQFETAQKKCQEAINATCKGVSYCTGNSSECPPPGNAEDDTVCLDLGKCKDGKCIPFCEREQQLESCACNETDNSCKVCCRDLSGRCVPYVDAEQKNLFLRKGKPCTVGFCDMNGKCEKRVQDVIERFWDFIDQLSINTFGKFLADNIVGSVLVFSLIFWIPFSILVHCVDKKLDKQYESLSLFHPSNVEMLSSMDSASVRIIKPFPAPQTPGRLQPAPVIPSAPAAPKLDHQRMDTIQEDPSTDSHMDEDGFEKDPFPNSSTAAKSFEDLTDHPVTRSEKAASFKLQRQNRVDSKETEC

[2] = target: Matrix metalloproteinase-9 (Homo sapiens, UniProt P14780); assay: Inhibitory activity against matrix metalloprotease 9 (MMP-9).
Chain of Matrix metalloproteinase-9 (P14780 whole entry): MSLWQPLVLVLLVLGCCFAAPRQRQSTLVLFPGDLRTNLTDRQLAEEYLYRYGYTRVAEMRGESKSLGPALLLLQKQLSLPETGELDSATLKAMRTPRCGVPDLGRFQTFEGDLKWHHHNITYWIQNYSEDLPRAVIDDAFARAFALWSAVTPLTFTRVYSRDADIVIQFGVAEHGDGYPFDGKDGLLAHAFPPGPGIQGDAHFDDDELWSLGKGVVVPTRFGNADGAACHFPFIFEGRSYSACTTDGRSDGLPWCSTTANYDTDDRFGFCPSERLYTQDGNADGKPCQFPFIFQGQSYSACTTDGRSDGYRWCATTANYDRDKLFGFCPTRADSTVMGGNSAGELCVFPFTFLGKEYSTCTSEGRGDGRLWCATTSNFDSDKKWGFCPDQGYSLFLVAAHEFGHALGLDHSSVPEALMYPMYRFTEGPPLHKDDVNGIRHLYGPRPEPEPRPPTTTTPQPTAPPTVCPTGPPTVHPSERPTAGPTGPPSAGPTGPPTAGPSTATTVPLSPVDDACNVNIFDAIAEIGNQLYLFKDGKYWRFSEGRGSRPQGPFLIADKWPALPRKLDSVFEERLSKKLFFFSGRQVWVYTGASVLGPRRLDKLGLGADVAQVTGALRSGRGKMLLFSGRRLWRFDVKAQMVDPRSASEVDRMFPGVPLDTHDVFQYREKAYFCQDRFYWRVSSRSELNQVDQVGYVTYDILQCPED

Collagenase 3 = Collagenase 3 (Homo sapiens, UniProt P45452); assay: Inhibitory activity against matrix metalloprotease 13 (MMP-13).
Bos taurus = organism: Bos taurus; assay: Ex vivo inhibition of cartilage degradation at 100 nM concentration in the bovine articular cartilage explant assay; assay type: functional; conditions: Cartilage tissue
Rattus norvegicus = assay: In vivo inhibition of cartilage degradation at 50 mpk po bid in the rat sponge-wrapped cartilage implant model; assay type: functional
Mus musculus [3] = assay: In vivo inhibition of MMP-13 at 50 mpk po 1 hr after dosing in the mouse dialysis tubing implant assay; assay type: functional
Mus musculus [4] = assay: In vivo inhibition of MMP-13 at 25 mpk po 1 hr after dosing in the mouse dialysis tubing implant assay; assay type: functional
THP-1 = assay: In vitro inhibition of TNF-alpha release at a concentration of 3 uM by using THP cellular assay; assay type: functional, cell-based; conditions: Homo sapiens

SMILES	IC50 (Interstitial collagenase) [nM]	IC50 [1] [nM]	IC50 [2] [nM]	IC50 (Collagenase 3) [nM]	also measured
Cc1nn(C)c2ncc(C(=O)NO)c(N(C)S(=O)(=O)c3ccc(Oc4ccc(Cl)cc4)cc3)c12	116	356	–	–	–
COc1ccc(S(=O)(=O)N(Cc2ccccc2)c2c(C(=O)NO)cnc3ccc(C(F)(F)F)cc23)cc1	–	> 1000	11	7	–
Cc1ccc(S(=O)(=O)N(Cc2cccnc2)c2c(C(=O)NO)cnc3cc(C(F)(F)F)ccc23)cc1	> 1000	> 1000	> 1000	> 1000	–
CN(c1c(C(=O)NO)cnc2ccccc12)S(=O)(=O)c1ccc(Oc2ccncc2)cc1	1010	124	–	1	inhibition at 0.1 µM (Bos taurus): 42%; inhibition in vivo at 50 mg/kg (Rattus norvegicus): 44%; inhibition in vivo at 50 mg/kg (Mus musculus [3]): 90%
COc1ccc(S(=O)(=O)N(C)c2c(C(=O)NO)cnc3c(Br)cccc23)cc1	–	296	–	–	–
Cc1nn(C)c2ncc(C(=O)NO)c(N(C)S(=O)(=O)c3ccc(F)cc3)c12	177	> 1000	595	170	–
CC#CCOc1ccc(S(=O)(=O)N(C)c2c(C(=O)NO)cnc3c2c(C)nn3C)cc1	–	–	100	–	–
O=C(NO)c1cnc2cc(C(F)(F)F)ccc2c1N(Cc1cccnc1)S(=O)(=O)c1ccc(-c2ccccc2)cc1	–	124	1160	–	–
COc1ccc(S(=O)(=O)N(Cc2cccnc2)c2c(C(=O)NO)cnc3c2cnn3-c2ccccc2)cc1	–	435	6	20	–
COc1ccc(S(=O)(=O)N(Cc2cccnc2)c2c(C(=O)NO)cnc3cc(C(F)(F)F)ccc23)cc1	–	1000	4	1	–
CC#CCOc1ccc(S(=O)(=O)N(C)c2c(C(=O)NO)cnc3onc(C)c23)cc1	–	6	–	–	–
Cc1nn(C)c2ncc(C(=O)NO)c(N(C)S(=O)(=O)c3ccc(Oc4ccncc4)cc3)c12	–	> 100	2	–	inhibition at 0.1 µM (Bos taurus): 61%; inhibition in vivo at 25 mg/kg (Mus musculus [4]): 54%; inhibition in vivo at 50 mg/kg (Rattus norvegicus): 46%
COc1ccc(S(=O)(=O)N(Cc2ccccc2)c2c(C(=O)NO)cnc3ccc(Br)cc23)cc1	108	> 1000	8	6	–
COc1ccc(S(=O)(=O)N(Cc2cccnc2)c2c(C(=O)NO)cnc3c(-c4cccs4)cccc23)cc1	136	–	–	–	–
CC#CCOc1ccc(S(=O)(=O)N(C)c2c(C(=O)NO)cnc3c(Br)cccc23)cc1	–	–	–	–	inhibition (THP-1): 32%
CC#CCOc1ccc(S(=O)(=O)N(C)c2c(C(=O)NO)cnc3c(OC)cccc23)cc1	–	–	–	9	–
COc1ccc(S(=O)(=O)N(Cc2cccnc2)c2c(C(=O)NO)cnc3c2c(C)nn3-c2ccccc2)cc1	115	–	–	–	–
COc1ccc(S(=O)(=O)N(Cc2cccnc2)c2c(C(=O)NO)cnc3snc(C)c23)cc1	–	–	2	–	–
COc1ccc(S(=O)(=O)N(Cc2cccnc2)c2c(C(=O)NO)cnc3c(I)cccc23)cc1	–	124	3	3	–
COc1ccc(S(=O)(=O)N(Cc2ccccc2)c2c(C(=O)NO)cnc3cc(Br)ccc23)cc1	–	> 1000	11	7	–
CCCCOc1ccc(S(=O)(=O)N(C)c2c(C(=O)NO)cnc3c2c(C)nn3C)cc1	1920	86	7	3	–
C=Cc1cccc2c(N(C)S(=O)(=O)c3ccc(OC)cc3)c(C(=O)NO)cnc12	200	205	5	5	–
